Species on record: Rattus norvegicus
Assay: Open TG-GATES - Regimen: Single
Type: toxicity, organism-based, Sprague-Dawley
Parameters: regimen Single, gender Male, age 6 weeks
Details: in vivo, po, 0 mg/kg, route gavage, dose level Control; for APTT / Bas / Eos / Fbg / Hb / Ht / Lym / MCH / MCHC / MCV / Mono / Neu / PT / Plat / RBC / Ret / WBC: tissue Blood; for KIDNEY_L / KIDNEY_R / KIDNEY_TOTAL: tissue Kidney; for LIVER: tissue Liver; for A/G / ALP / ALT / AST / BUN / CRE / Ca / Cl / DBIL / GLC / IP / K / LDH / Na / PL / RALB / TBIL / TC / TG / TP / gamma-GTP: tissue Plasma

SMILES: CC(=N)S [THIOACETAMIDE]
- TERMINAL_BW (3 h): 187.1 g
- APTT (3 h): 17.5 s
- Bas (3 h): 0%
- Eos (3 h): 0.6%
- Fbg (3 h): 224.8 mg/dL
- Hb (3 h): 13.3 g/dL
- Ht (3 h): 40%
- Lym (3 h): 77.6%
- MCH (3 h): 21.7 pg
- MCHC (3 h): 33.1%
- MCV (3 h): 65.4 fL
- Mono (3 h): 8.2%
- Neu (3 h): 13.4%
- PT (3 h): 12 s
- Plat (3 h): 101.8 x10_4/uL
- RBC (3 h): 611.6 x10_4/ul
- Ret (3 h): 8.4%
- WBC (3 h): 120.6 x10_2/uL
- KIDNEY_L (3 h): 0.9 g
- KIDNEY_R (3 h): 0.9 g
- KIDNEY_TOTAL (3 h): 1.7 g
- LIVER (3 h): 8.7 g
- A/G (3 h): 2.1
- ALP (3 h): 962.8 IU/L
- ALT (3 h): 34.4 IU/L
- AST (3 h): 69.2 IU/L
- BUN (3 h): 10.2 mg/dL
- CRE (3 h): 0.5 mg/dL
- Ca (3 h): 10.6 mg/dL
- Cl (3 h): 103.6 meq/L
- DBIL (3 h): 0 mg/dL
- GLC (3 h): 181.6 mg/dL
- IP (3 h): 9.1 mg/dL
- K (3 h): 4.8 meq/L
- LDH (3 h): 87.6 IU/L
- Na (3 h): 137.2 meq/L
- PL (3 h): 141.8 mg/dL
- RALB (3 h): 3.7 g/dL
- TBIL (3 h): 0.4 mg/dL
- TC (3 h): 79.8 mg/dL
- TG (3 h): 52 mg/dL
- TP (3 h): 5.5 g/dL
- gamma-GTP (3 h): 1.8 IU/L
- TERMINAL_BW (6 h): 185.6 g
- APTT (6 h): 17 s
- Bas (6 h): 0%
- Eos (6 h): 1%
- Fbg (6 h): 221.6 mg/dL
- Hb (6 h): 13.1 g/dL
- Ht (6 h): 39.7%
- Lym (6 h): 79%
- MCH (6 h): 21.6 pg
- MCHC (6 h): 33.1%
- MCV (6 h): 65.2 fL
- Mono (6 h): 7.8%
- Neu (6 h): 12.8%
- PT (6 h): 12.1 s
- Plat (6 h): 104 x10_4/uL
- RBC (6 h): 610.4 x10_4/ul
- Ret (6 h): 9.2%
- WBC (6 h): 126.6 x10_2/uL
- KIDNEY_L (6 h): 0.9 g
- KIDNEY_R (6 h): 0.9 g
- KIDNEY_TOTAL (6 h): 1.8 g
- LIVER (6 h): 8.3 g
- A/G (6 h): 2.4
- ALP (6 h): 828.6 IU/L
- ALT (6 h): 30.2 IU/L
- AST (6 h): 65.2 IU/L
- BUN (6 h): 10.8 mg/dL
- CRE (6 h): 0.6 mg/dL
- Ca (6 h): 10.2 mg/dL
- Cl (6 h): 103.8 meq/L
- DBIL (6 h): 0.012 mg/dL
- GLC (6 h): 182.4 mg/dL
- IP (6 h): 9.6 mg/dL
- K (6 h): 5.1 meq/L
- LDH (6 h): 72.2 IU/L
- Na (6 h): 136.6 meq/L
- PL (6 h): 140.6 mg/dL
- RALB (6 h): 3.8 g/dL
- TBIL (6 h): 0.4 mg/dL
- TC (6 h): 80.8 mg/dL
- TG (6 h): 61.8 mg/dL
- TP (6 h): 5.4 g/dL
- gamma-GTP (6 h): 1 IU/L
- TERMINAL_BW (9 h): 186.9 g
- APTT (9 h): 16.2 s
- Bas (9 h): 0%
- Eos (9 h): 1%
- Fbg (9 h): 226.8 mg/dL
- Hb (9 h): 13 g/dL
- Ht (9 h): 39.5%
- Lym (9 h): 75%
- MCH (9 h): 22 pg
- MCHC (9 h): 33%
- MCV (9 h): 66.7 fL
- Mono (9 h): 7.8%
- Neu (9 h): 16.2%
- PT (9 h): 12.4 s
- Plat (9 h): 107.7 x10_4/uL
- RBC (9 h): 592 x10_4/ul
- Ret (9 h): 9.4%
- WBC (9 h): 120.6 x10_2/uL
- KIDNEY_L (9 h): 0.9 g
- KIDNEY_R (9 h): 0.9 g
- KIDNEY_TOTAL (9 h): 1.8 g
- LIVER (9 h): 8 g
- A/G (9 h): 2
- ALP (9 h): 859.8 IU/L
- ALT (9 h): 32.2 IU/L
- AST (9 h): 62.8 IU/L
- BUN (9 h): 13 mg/dL
- CRE (9 h): 0.5 mg/dL
- Ca (9 h): 10.3 mg/dL
- Cl (9 h): 104.6 meq/L
- DBIL (9 h): 0.03 mg/dL
- GLC (9 h): 186.2 mg/dL
- IP (9 h): 9.8 mg/dL
- K (9 h): 4.8 meq/L
- LDH (9 h): 84.4 IU/L
- Na (9 h): 136.6 meq/L
- PL (9 h): 124 mg/dL
- RALB (9 h): 3.7 g/dL
- TBIL (9 h): 0.4 mg/dL
- TC (9 h): 71.8 mg/dL
- TG (9 h): 42 mg/dL
- TP (9 h): 5.6 g/dL
- gamma-GTP (9 h): 1.4 IU/L
- TERMINAL_BW (24 h): 198.1 g
- APTT (24 h): 17.2 s
- Bas (24 h): 0%
- Eos (24 h): 0.8%
- Fbg (24 h): 218.5 mg/dL
- Hb (24 h): 13.3 g/dL
- Ht (24 h): 40.6%
- Lym (24 h): 80.8%
- MCH (24 h): 21.1 pg
- MCHC (24 h): 32.9%
- MCV (24 h): 64.2 fL
- Mono (24 h): 6.2%
- Neu (24 h): 12.5%
- PT (24 h): 12.1 s
- Plat (24 h): 107.1 x10_4/uL
- RBC (24 h): 632.8 x10_4/ul
- Ret (24 h): 8.1%
- WBC (24 h): 135 x10_2/uL
- KIDNEY_L (24 h): 0.9 g
- KIDNEY_R (24 h): 0.9 g
- KIDNEY_TOTAL (24 h): 1.8 g
- LIVER (24 h): 9.7 g
- A/G (24 h): 2.2
- ALP (24 h): 883 IU/L
- ALT (24 h): 32.5 IU/L
- AST (24 h): 63.5 IU/L
- BUN (24 h): 17.2 mg/dL
- CRE (24 h): 0.5 mg/dL
- Ca (24 h): 10.4 mg/dL
- Cl (24 h): 102.8 meq/L
- DBIL (24 h): 0.0425 mg/dL
- GLC (24 h): 183.2 mg/dL
- IP (24 h): 7.2 mg/dL
- K (24 h): 5.4 meq/L
- LDH (24 h): 87.2 IU/L
- Na (24 h): 136 meq/L
- PL (24 h): 152.8 mg/dL
- RALB (24 h): 4 g/dL
- TBIL (24 h): 0.3 mg/dL
- TC (24 h): 77.2 mg/dL
- TG (24 h): 113.2 mg/dL
- TP (24 h): 5.8 g/dL
- gamma-GTP (24 h): 1.5 IU/L
